PMC5241874

Target: T1, αγ heterodimer of human NAD-IDH (IDH3) (Homo sapiens, UniProt P50213+P51553)
T1 construct: gene IDH3A; alpha and gamma co-expressed in E. coli BL21(DE3) from pQlinkN; gamma C-terminal TEV-His6, His6 cleaved by TEV; 80 kDa heterodimer (dimer of heterodimers at high concentration)
T1 sequence (P50213 28-366): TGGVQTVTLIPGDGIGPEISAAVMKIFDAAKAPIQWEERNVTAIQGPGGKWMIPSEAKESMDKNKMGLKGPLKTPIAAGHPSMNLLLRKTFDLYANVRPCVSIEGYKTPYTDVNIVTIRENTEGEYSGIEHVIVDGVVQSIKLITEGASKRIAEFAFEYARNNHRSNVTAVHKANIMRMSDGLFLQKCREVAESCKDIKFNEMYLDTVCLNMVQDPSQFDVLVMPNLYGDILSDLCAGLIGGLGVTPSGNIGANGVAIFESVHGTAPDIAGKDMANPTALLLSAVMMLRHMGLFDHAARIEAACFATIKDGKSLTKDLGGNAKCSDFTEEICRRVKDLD
T1 sequence (P51553 40-393): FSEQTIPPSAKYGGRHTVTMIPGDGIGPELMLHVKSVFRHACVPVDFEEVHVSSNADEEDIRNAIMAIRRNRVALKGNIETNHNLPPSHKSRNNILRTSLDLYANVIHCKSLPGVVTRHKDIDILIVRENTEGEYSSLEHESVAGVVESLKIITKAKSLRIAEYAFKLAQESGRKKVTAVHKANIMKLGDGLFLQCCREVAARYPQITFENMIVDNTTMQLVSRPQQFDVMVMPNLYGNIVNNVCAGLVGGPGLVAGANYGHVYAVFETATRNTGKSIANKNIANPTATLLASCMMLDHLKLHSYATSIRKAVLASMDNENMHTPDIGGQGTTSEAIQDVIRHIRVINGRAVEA
Assay: crystal structure, […] Å
Type: binding
Settings: allosteric citrate subsite in gamma subunit (second site), with Mg2+ and ADP; pH 7.5

Structure (SMILES): O=C(O)C[C@H](C(=O)O)[C@@H](O)C(=O)O [ICT]
- crystal structure, 2.8 Å: In this structure, ICT binds to the CIT-binding subsite with a similar orientation as CIT
